{"source": "patent US5756491A", "about": "“Antiviral cobalt-organic compounds” (priority 1991, dated 1998)", "key": {"HSV-1 McKrae Strain [1]": {"system": "HSV-1 McKrae Strain", "assay": "Intracellular antiviral activity against HSV-1 in HFF monolayers", "type": "cell-based", "details": "Experiment 7 (Table 18), 24 h PI", "description": "HSV-1 McKrae Strain was diluted to a final concentration of 10^5 PFU/ml in minimal essential medium (MEM). Hereinafter, this dilution is referred to as the HSV-1 Suspension for convenience.\nWith sufficient stirring, all the compounds completely dissolved.\nHFF cell monolayers were inoculated with the HSV-Suspension prepared as above by absorption for thirty minutes at 37° C. After absorption of the virus, the inoculum was aspirated from the cell monolayers and the HSV-1 infected monolayers were rehydrated with medium containing the appropriate concentration of the solution of the compound by adding 500 microliters of each compound concentration to triplicate HSV-1 infected monolayers. All monolayers were incubated at 37° C. The developing HSV-1 cytopathology was monitored daily for two days by inverted light microscopy and titers were calculated by multiple […] analysis. For the intracellular anti-viral activity, \"cell monolayer controls\" were obtained using sham inoculated non-treated HFF cell monolayers along with the drug treated monolayers. \"Positive controls\" were obtained by using HSV-1 inoculated non-CTC compound treated HFF monolayers."}, "HFF cells [2]": {"system": "HFF cells", "assay": "Cell proliferation assay", "type": "cell-based, human", "details": "rapidly growing cells"}, "HFF cells [3]": {"system": "HFF cells", "assay": "Neutral red uptake toxicity", "type": "cell-based, human", "details": "stationary cells"}, "VZV": {"system": "VZV", "assay": "In vitro assay with VZV on HFF monolayers", "type": "cell-based", "details": "Table 20, 7 days PI", "description": "VZV was grown to a CPE level in vitro assays with VZV of 3-4+ on HFF cell monolayers. The VZV was scraped from the flask, centrifuged and the cell pellet was resuspended in 10 ml of complete medium. One hundred to 200 μl of the VZV cell associated inoculum was inoculated onto confluent HFF cell monolayers by absorption for 60 minutes at 37° C. After absorption of the virus, the inoculum was aspirated from the cell monolayers.\nThe VZV-infected monolayers were rehydrated with medium containing the appropriate concentrations of compounds to be tested. All monolayers were incubated at 37° C. Development of VZV cytopathology was monitored daily for 7 days by inverted light microscopy. Titers were calculated by multiple regression analysis.\nSham-inoculated, non-treated HFF cell monolayers were included among with the drug-treated monolayers as cell monolayer controls.\nVZV inoculated, non-treated HFF monolayers were included as positive controls."}, "HSV-1 McKrae Strain [4]": {"system": "HSV-1 McKrae Strain", "assay": "Direct virucidal efficacy against HSV-1 on HFF monolayers", "type": "cell-based"}, "HSV-2 (MS strain)": {"system": "HSV-2 (MS strain)", "assay": "External genital lesion development in primary genital HSV-2 infection of guinea pigs", "type": "in vivo, Female Hartley strain guinea pigs", "parameters": "key to Lesion Score-Day Area Under Curve: area under 0-5+ lesion score vs day curve (score-days); key to Mean Peak Lesion Score: lesion severity on 0-5+ scale", "details": "20 mg/ml", "description": "A series of studies were carried out to compare the activity of inventive antiviral Compounds 23, 76, and 82 in a primary genital HSV-2 infection of guinea pigs. The experiments were placebo-controlled and uninfected animals were treated with three concentrations of each of the preparations to assess skin irritation and determine the maximum tolerated dose.\nThe MS strain of HSV-2 was utilized for the experimental animal infection. Female Hartley strain guinea pigs (Charles River Breeding Laboratories, Kingston, N.Y.) weighing 250-300 g were inoculated intravaginally with 1.4×10^5 plaque forming units of HSV-2 one hour after being swabbed for the removal of vaginal secretions.\nGroups of 10 infected guinea pigs were treated topically as stated above with 20 mg/ml (the maximum tolerated dose) of each compound beginning 6 h or 24 h after inoculation with HSV-2.\nTo determine the effect of therapy on the development and spread of external genital lesions, lesion severity was scored on a 0-5+ scale through the primary infection (21 days). Mean peak lesion scores and the areas under the lesion score-day curves were calculated and analyzed.\nThe number of animals infected over the number inoculated, lesion score-day areas and virus titer-day areas under the curve, peak lesion scores and peak virus titers between untreated and placebo-treated or placebo-treatedand drug-treated animals were compared using the Mann-Whitney U rank sum test. A p-value of 0.05 or less was considered significant."}}, "data": [{"smiles": "CC1=CC(C)=[N+]2CC[N+]3=C(C)C=C(C)[O][Co-3]23([NH3+])([NH3+])[O]1.[Cl-]", "note": "[Compound 23, reference compound]", "values": [{"measurement": "antiviral efficacy (HSV-1 titer)", "setting": "HSV-1 McKrae Strain [1]; 0.01 mg/ml", "value": "10^2 PFU/ml"}, {"measurement": "antiviral efficacy (HSV-1 titer)", "setting": "HSV-1 McKrae Strain [1]; 0.5 mg/ml", "value": "0-10^1 PFU/ml"}, {"measurement": "antiviral efficacy (HSV-1 titer)", "setting": "HSV-1 McKrae Strain [1]; 1 mg/ml", "value": 0, "unit": "PFU/ml"}, {"measurement": "antiviral efficacy (HSV-1 titer)", "setting": "HSV-1 McKrae Strain [1]; 2 mg/ml", "value": 0, "unit": "PFU/ml"}, {"measurement": "antiviral efficacy (HSV-1 titer)", "setting": "HSV-1 McKrae Strain [1]; 5 mg/ml", "value": 0, "unit": "PFU/ml"}, {"measurement": "toxicity IC50, cell proliferation", "setting": "HFF cells [2]", "value": 6.2, "unit": "MCG/ML"}, {"measurement": "toxicity IC50, neutral red uptake", "setting": "HFF cells [3]", "value": 11.5, "unit": "MCG/ML"}, {"measurement": "virucidal efficacy (VZV titer)", "setting": "VZV; 0.1 mg/ml, toxicity observation questionable", "value": "T?"}, {"measurement": "virucidal efficacy (VZV titer)", "setting": "VZV; 0.5 mg/ml", "value": 0, "unit": "PFU/ml"}, {"measurement": "virucidal efficacy (VZV titer)", "setting": "VZV; 1 mg/ml", "value": 0, "unit": "PFU/ml"}, {"measurement": "virucidal efficacy (VZV titer)", "setting": "VZV; 2 mg/ml", "value": 0, "unit": "PFU/ml"}, {"measurement": "virucidal efficacy (VZV titer)", "setting": "VZV; 5 mg/ml", "value": 0, "unit": "PFU/ml"}, {"measurement": "virucidal efficacy (HSV-1 titer)", "setting": "HSV-1 McKrae Strain [4]; Experiment 1 (Table 2), 24 h PI, 0.001 mg/ml", "value": "10^5 PFU/ml"}, {"measurement": "virucidal efficacy (HSV-1 titer)", "setting": "HSV-1 McKrae Strain [4]; Experiment 1 (Table 2), 24 h PI, 0.1 mg/ml", "value": "10^1 PFU/ml"}, {"measurement": "virucidal efficacy (HSV-1 titer)", "setting": "HSV-1 McKrae Strain [4]; Experiment 1 (Table 2), 24 h PI, 1 mg/ml", "value": 0, "unit": "PFU/ml"}, {"measurement": "virucidal efficacy (HSV-1 titer)", "setting": "HSV-1 McKrae Strain [4]; Experiment 1 (Table 2), 24 h PI, 10 mg/ml", "value": 0, "unit": "PFU/ml"}, {"measurement": "virucidal efficacy (HSV-1 titer)", "setting": "HSV-1 McKrae Strain [4]; Experiment 1 (Table 2), 24 h PI, .01 mg/ml", "value": "10^3 PFU/ml"}, {"measurement": "virucidal efficacy (HSV-1 titer)", "setting": "HSV-1 McKrae Strain [4]; Experiment 1 (Table 2), 48 h PI, 0.1 mg/ml", "value": "10^5 PFU/ml"}, {"measurement": "virucidal efficacy (HSV-1 titer)", "setting": "HSV-1 McKrae Strain [4]; Experiment 1 (Table 2), 48 h PI, 1 mg/ml", "value": "10^5 PFU/ml"}, {"measurement": "virucidal efficacy (HSV-1 titer)", "setting": "HSV-1 McKrae Strain [4]; Experiment 1 (Table 2), 48 h PI, 10 mg/ml", "value": "O/T"}, {"measurement": "effective virucidal concentration IC90", "setting": "HSV-1 McKrae Strain [4]; Experiment 1 (Table 3), HSV-1", "value": 100, "unit": "µg/mL"}, {"measurement": "virucidal efficacy (HSV-1 titer)", "setting": "HSV-1 McKrae Strain [4]; Experiment 2 (Table 5), 24 h PI, 0.001 mg/ml", "value": "10^3 PFU/ml"}, {"measurement": "virucidal efficacy (HSV-1 titer)", "setting": "HSV-1 McKrae Strain [4]; Experiment 2 (Table 5), 24 h PI, 0.01 mg/ml", "value": "10^2 PFU/ml"}, {"measurement": "virucidal efficacy (HSV-1 titer)", "setting": "HSV-1 McKrae Strain [4]; Experiment 2 (Table 5), 24 h PI, 0.1 mg/ml", "value": "10^1 PFU/ml"}, {"measurement": "virucidal efficacy (HSV-1 titer)", "setting": "HSV-1 McKrae Strain [4]; Experiment 2 (Table 5), 24 h PI, 1 mg/ml", "value": 0, "unit": "PFU/ml"}, {"measurement": "virucidal efficacy (HSV-1 titer)", "setting": "HSV-1 McKrae Strain [4]; Experiment 2 (Table 5), 24 h PI, 10 mg/ml", "value": 0, "unit": "PFU/ml"}, {"measurement": "virucidal efficacy (HSV-1 titer)", "setting": "HSV-1 McKrae Strain [4]; Experiment 2 (Table 5), 48 h PI, 0.1 mg/ml", "value": "10^5 PFU/ml"}, {"measurement": "virucidal efficacy (HSV-1 titer)", "setting": "HSV-1 McKrae Strain [4]; Experiment 2 (Table 5), 48 h PI, 1 mg/ml", "value": 0, "unit": "PFU/ml"}, {"measurement": "virucidal efficacy (HSV-1 titer)", "setting": "HSV-1 McKrae Strain [4]; Experiment 2 (Table 5), 48 h PI, 10 mg/ml", "value": "O/T"}, {"measurement": "virucidal efficacy (HSV-1 titer)", "setting": "HSV-1 McKrae Strain [4]; Experiment 3 (Table 8), 24 h PI, 0.001 mg/ml", "value": "10^5 PFU/ml"}, {"measurement": "virucidal efficacy (HSV-1 titer)", "setting": "HSV-1 McKrae Strain [4]; Experiment 3 (Table 8), 24 h PI, 0.01 mg/ml", "value": "10^3 PFU/ml"}, {"measurement": "virucidal efficacy (HSV-1 titer)", "setting": "HSV-1 McKrae Strain [4]; Experiment 3 (Table 8), 24 h PI, 0.1 mg/ml", "value": "10^1 PFU/ml"}, {"measurement": "virucidal efficacy (HSV-1 titer)", "setting": "HSV-1 McKrae Strain [4]; Experiment 3 (Table 8), 24 h PI, 1 mg/ml", "value": 0, "unit": "PFU/ml"}, {"measurement": "virucidal efficacy (HSV-1 titer)", "setting": "HSV-1 McKrae Strain [4]; Experiment 3 (Table 8), 48 h PI, 0.1 mg/ml", "value": "10^5 PFU/ml"}, {"measurement": "virucidal efficacy (HSV-1 titer)", "setting": "HSV-1 McKrae Strain [4]; Experiment 3 (Table 8), 48 h PI, 1 mg/ml", "value": "10^5 PFU/ml"}, {"measurement": "virucidal efficacy (HSV-1 titer)", "setting": "HSV-1 McKrae Strain [4]; Experiment 6 (Table 16), 24 h PI, 0.1 mg/ml", "value": "10^0-1 PFU/ml"}, {"measurement": "virucidal efficacy (HSV-1 titer)", "setting": "HSV-1 McKrae Strain [4]; Experiment 6 (Table 16), 24 h PI, 0.5 mg/ml", "value": 0, "unit": "PFU/ml"}, {"measurement": "virucidal efficacy (HSV-1 titer)", "setting": "HSV-1 McKrae Strain [4]; Experiment 6 (Table 16), 24 h PI, 1 mg/ml", "value": 0, "unit": "PFU/ml"}, {"measurement": "virucidal efficacy (HSV-1 titer)", "setting": "HSV-1 McKrae Strain [4]; Experiment 6 (Table 16), 24 h PI, 2 mg/ml", "value": 0, "unit": "PFU/ml"}, {"measurement": "virucidal efficacy (HSV-1 titer)", "setting": "HSV-1 McKrae Strain [4]; Experiment 6 (Table 16), 24 h PI, 5 mg/ml", "value": 0, "unit": "PFU/ml"}, {"measurement": "Lesion Score-Day Area Under Curve", "setting": "HSV-2 (MS strain); started +6h", "value": 0.0}, {"measurement": "Mean Peak Lesion Score", "setting": "HSV-2 (MS strain); started +6h", "value": 0.0}, {"measurement": "P-Value for Mean Peak Lesion Score", "setting": "HSV-2 (MS strain); started +6h", "value": "< 0.001"}, {"measurement": "Lesion Score-Day Area Under Curve", "setting": "HSV-2 (MS strain); started +24h", "value": 43.8}, {"measurement": "Mean Peak Lesion Score", "setting": "HSV-2 (MS strain); started +24h", "value": 3.4}]}]}
